Results taken from ChEMBL document CHEMBL3045887, “Synthesis and anticonvulsant activity of some N-(benzoyl)glycinanilide derivatives” (Med Chem Res, 2013).
The source made the active and inactive calls. No cut-off for these calls is given here.

Assays:
Mus musculus [1] = experiment: Neurotoxicity against Swiss albino Mus musculus (mouse) at 30 mg/kg, ip measured at 0.5 hr; type: toxicity, organism-based; parameters: dose 30 mg/kg, route intraperitoneal; details: in vivo
Mus musculus [2] = experiment: Anticonvulsant activity in Swiss albino Mus musculus (mouse) assessed as protection against ScMet-induced myoclonic-clonic seizures at 100 mg/kg, ip measured at 0.5 hr; type: functional, organism-based; parameters: dose 100 mg/kg
Mus musculus [3] = experiment: Neurotoxicity against Swiss albino Mus musculus (mouse) at 300 mg/kg, ip measured at 4 hr; type: toxicity, organism-based; parameters: dose 300 mg/kg, route intraperitoneal; details: in vivo
Mus musculus [4] = experiment: Anticonvulsant activity in Swiss albino Mus musculus (mouse) assessed as protection against maximal electric shock-induced tonic-clonic seizures at 30 mg/kg, ip measured at 4 hr; type: functional, organism-based; parameters: dose 30 mg/kg
Mus musculus [5] = experiment: Anticonvulsant activity in Swiss albino Mus musculus (mouse) assessed as protection against ScMet-induced myoclonic-clonic seizures at 300 mg/kg, ip measured at 4 hr; type: functional, organism-based; parameters: dose 300 mg/kg
Mus musculus [6] = experiment: Anticonvulsant activity in Swiss albino Mus musculus (mouse) assessed as protection against maximal electric shock-induced tonic-clonic seizures at 100 mg/kg, ip measured at 4 hr; type: functional, organism-based; parameters: dose 100 mg/kg
Mus musculus [7] = experiment: Neurotoxicity against Swiss albino Mus musculus (mouse) at 100 mg/kg, ip measured at 0.5 hr; type: toxicity, organism-based; parameters: dose 100 mg/kg, route intraperitoneal; details: in vivo
Mus musculus [8] = experiment: Anticonvulsant activity in Swiss albino Mus musculus (mouse) assessed as protection against maximal electric shock-induced tonic-clonic seizures at 30 mg/kg, ip measured at 0.5 hr; type: functional, organism-based; parameters: dose 30 mg/kg
Mus musculus [9] = experiment: Anticonvulsant activity in Swiss albino Mus musculus (mouse) assessed as protection against ScMet-induced myoclonic-clonic seizures at 100 mg/kg, ip measured at 4 hr; type: functional, organism-based; parameters: dose 100 mg/kg
Mus musculus [10] = experiment: Anticonvulsant activity in Swiss albino Mus musculus (mouse) assessed as protection against ScMet-induced myoclonic-clonic seizures at 30 mg/kg, ip measured at 4 hr; type: functional, organism-based; parameters: dose 30 mg/kg
Mus musculus [11] = experiment: Neurotoxicity against Swiss albino Mus musculus (mouse) at 30 mg/kg, ip measured at 4 hr; type: toxicity, organism-based; parameters: dose 30 mg/kg, route intraperitoneal; details: in vivo
Mus musculus [12] = experiment: Anticonvulsant activity in Swiss albino Mus musculus (mouse) assessed as protection against ScMet-induced myoclonic-clonic seizures at 300 mg/kg, ip measured at 0.5 hr; type: functional, organism-based; parameters: dose 300 mg/kg
Mus musculus [13] = experiment: Anticonvulsant activity in Swiss albino Mus musculus (mouse) assessed as protection against maximal electric shock-induced tonic-clonic seizures at 300 mg/kg, ip measured at 0.5 hr; type: functional, organism-based; parameters: dose 300 mg/kg
Mus musculus [14] = experiment: Anticonvulsant activity in Swiss albino Mus musculus (mouse) assessed as protection against ScMet-induced myoclonic-clonic seizures at 30 mg/kg, ip measured at 0.5 hr; type: functional, organism-based; parameters: dose 30 mg/kg
Mus musculus [15] = experiment: Neurotoxicity against Swiss albino Mus musculus (mouse) at 100 mg/kg, ip measured at 4 hr; type: toxicity, organism-based; parameters: dose 100 mg/kg, route intraperitoneal; details: in vivo
Mus musculus [16] = experiment: Anticonvulsant activity in Swiss albino Mus musculus (mouse) assessed as protection against maximal electric shock-induced tonic-clonic seizures at 300 mg/kg, ip measured at 4 hr; type: functional, organism-based; parameters: dose 300 mg/kg
Mus musculus [17] = experiment: Neurotoxicity against Swiss albino Mus musculus (mouse) at 300 mg/kg, ip measured at 0.5 hr; type: toxicity, organism-based; parameters: dose 300 mg/kg, route intraperitoneal; details: in vivo
Mus musculus [18] = experiment: Anticonvulsant activity in Swiss albino Mus musculus (mouse) assessed as protection against maximal electric shock-induced tonic-clonic seizures at 100 mg/kg, ip measured at 0.5 hr; type: functional, organism-based; parameters: dose 100 mg/kg

Row | SMILES | Activity (Mus musculus [1]) | Activity (Mus musculus [2]) | Activity (Mus musculus [3]) | Activity (Mus musculus [4]) | Activity (Mus musculus [5]) | Activity (Mus musculus [6]) | Activity (Mus musculus [7]) | Activity (Mus musculus [8]) | Activity (Mus musculus [9]) | Activity (Mus musculus [10]) | Activity (Mus musculus [11]) | Activity (Mus musculus [12]) | Activity (Mus musculus [13]) | Activity (Mus musculus [14]) | Activity (Mus musculus [15]) | Activity (Mus musculus [16]) | Activity (Mus musculus [17]) | Activity (Mus musculus [18])
1 | CC(C)c1ccccc1NC(=O)CNC(=O)c1ccccc1 | Non-toxic | inactive | Non-toxic | inactive | inactive | inactive | Non-toxic | inactive | inactive | inactive | Non-toxic | inactive | Active | inactive | Non-toxic | inactive | Non-toxic | inactive
2 | O=C(CNC(=O)c1ccccc1)Nc1ccccc1 | Non-toxic | inactive | Non-toxic | inactive | inactive | inactive | Non-toxic | inactive | inactive | inactive | Non-toxic | inactive | Active | inactive | Non-toxic | inactive | Non-toxic | inactive
3 | O=C(CNC(=O)c1ccccc1Cl)Nc1ccccc1 | Non-toxic | inactive | Non-toxic | inactive | inactive | inactive | Non-toxic | inactive | inactive | inactive | Non-toxic | inactive | inactive | inactive | Non-toxic | Active | Non-toxic | inactive
4 | Cc1cccc(C)c1NC(=O)CNC(=O)c1ccccc1 | Non-toxic | inactive | Non-toxic | inactive | inactive | Active | Non-toxic | inactive | inactive | inactive | Non-toxic | inactive | inactive | inactive | Non-toxic | Active | Non-toxic | inactive
5 | COc1ccc(NC(=O)CNC(=O)c2ccccc2)cc1 | Non-toxic | inactive | Non-toxic | inactive | inactive | inactive | Non-toxic | inactive | inactive | inactive | Non-toxic | inactive | Active | inactive | Non-toxic | Active | Non-toxic | Active
6 | Cc1ccc(C(=O)NCC(=O)Nc2ccccc2)cc1 | Non-toxic | inactive | Non-toxic | inactive | inactive | inactive | Non-toxic | inactive | inactive | inactive | Non-toxic | Active | inactive | inactive | Non-toxic | inactive | Non-toxic | inactive
7 | CCc1ccccc1NC(=O)CNC(=O)c1ccccc1 | Non-toxic | inactive | Non-toxic | inactive | inactive | inactive | Non-toxic | inactive | inactive | inactive | Non-toxic | inactive | inactive | inactive | Non-toxic | inactive | Non-toxic | inactive
8 | Cc1ccccc1NC(=O)CNC(=O)c1ccccc1 | Non-toxic | inactive | Non-toxic | inactive | inactive | inactive | Non-toxic | inactive | inactive | inactive | Non-toxic | inactive | Active | inactive | Non-toxic | inactive | Non-toxic | inactive
9 | COc1ccccc1NC(=O)CNC(=O)c1ccccc1 | Non-toxic | inactive | Non-toxic | inactive | inactive | inactive | Non-toxic | inactive | inactive | inactive | Non-toxic | inactive | inactive | inactive | Non-toxic | inactive | Non-toxic | inactive
10 | O=C(CNC(=O)c1ccc([N+](=O)[O-])cc1)Nc1ccccc1 | Non-toxic | inactive | Non-toxic | inactive | Active | inactive | Non-toxic | inactive | inactive | inactive | Non-toxic | Active | inactive | inactive | Non-toxic | inactive | Non-toxic | inactive
11 | O=C(CNC(=O)c1ccccc1)Nc1ccccc1Cl | Non-toxic | inactive | Non-toxic | inactive | inactive | inactive | Non-toxic | inactive | inactive | inactive | Non-toxic | inactive | inactive | inactive | Non-toxic | inactive | Non-toxic | inactive
